Test system: GAS
Assay: time-dependent killing (bactericidal) assay
Assay type: cell-based, Streptococcus pyogenes
Conditions: 10× MIC; exponential phase GAS
Protocol: GAS grown to exponential phase was diluted to 10^5 CFUs ml^−1. […] A 100-µl aliquot was collected at each timepoint, cells were centrifuged and pellets were resuspended in 100 µl phosphate-buffered saline (PBS). Cells were serially diluted and plated on blood agar plates. After overnight incubation at 37 °C, CFUs were enumerated and reported as CFUs ml^−1. […] Bactericidal assays were performed in biological triplicate.

SMILES: CC1(C)S[C@@H]2[C@H](NC(=O)Cc3ccccc3)C(=O)N2[C@H]1C(=O)O [penicillin G]
- killing of GAS, in words: complete killing
